Test results taken from the NIST ThermoML archive (doi:10.1016/j.jct.2018.08.038).
± gives the expanded uncertainty stated by the source.

Conditions: 101.33 kPa, Liquid, Vibrating tube method

Row | SMILES | mass density (303.15 K) [kg/m3] | mass density (313.15 K) [kg/m3] | mass density (323.15 K) [kg/m3] | mass density (333.15 K) [kg/m3]
1 | CCCC[n+]1ccccc1.O=S(=O)([N-]S(=O)(=O)C(F)(F)F)C(F)(F)F [1-butylpyridinium bis[(trifluoromethyl)sulfonyl]imide] | 1449.8 ± 2.1 | 1440.3 ± 2.1 | 1431.1 ± 2.1 | 1421.9 ± 2.1
2 | CCCC[n+]1ccccc1.N#C[N-]C#N [1-butylpyridinium dicyanamide] | 1074.8 ± 2 | 1069.7 ± 2 | 1064.4 ± 2 | 1059.5 ± 2
